≈ marks a conversion by molar mass, not a printed value.
Legend:
Test in all cases: ≥ marks a high value that may be exact or a test limit, other limits are often not marked, values filed in µg/mL are converted to µM
[1] = system: Candida albicans TIMM 1768
[2] = system: Staphylococcus aureus KCTC 1621
[3] = system: Aspergillus fumigatus KCTC 4165
[4] = system: Bacillus subtilis KCTC 1918
[5] = system: Streptococcus pyogenes KCTC 3096
[6] = system: Escherichia coli KCTC 1682
[7] = system: Salmonella typhimurium KCTC 1926
[8] = system: Pseudomonas aeruginosa KCTC 1637

SMILES: CC[C@H](C)[C@H](NC(=O)[C@H](CCCCN)NC(=O)[C@H](CCCCN)NC(=O)[C@H](CC(C)C)NC(=O)[C@H](CCCCN)NC(=O)[C@H](CCC(=O)O)NC(=O)CN)C(=O)NCC(=O)N[C@@H](CCC(N)=O)C(=O)N[C@@H](CCCCN)C(=O)N[C@H](C(=O)N[C@@H](CCCCN)C(=O)N[C@@H](CC(N)=O)C(=O)N[C@@H](Cc1ccccc1)C(=O)N[C@@H](Cc1ccccc1)C(=O)N[C@@H](CCCCN)C(=O)N[C@@H](CCCCN)C(=O)N[C@@H](CC(C)C)C(=O)O)[C@@H](C)CC [GEKLKKIGQKIKNFFKKL]
- MIC [1]: 25 µM (≈ 53.7 µg/mL)
- MIC [2]: 6.25 µM (≈ 13.4 µg/mL)
- MIC [3]: 25 µM (≈ 53.7 µg/mL)
- MIC [4]: 6.25 µM (≈ 13.4 µg/mL)
- MIC [5]: 12.5 µM (≈ 26.8 µg/mL)
- MIC [6]: 6.25 µM (≈ 13.4 µg/mL)
- MIC [7]: 6.25 µM (≈ 13.4 µg/mL)
- MIC [8]: 3.12 µM (≈ 6.7 µg/mL)

Reference: DBAASP
